Measured values: article PMC8858318, “Targeting autophagy peptidase ATG4B with a novel natural product inhibitor Azalomycin F4a for advanced gastric cancer” (Cell Death & Disease, 2022)

Biological target: T1, ATG4B (Homo sapiens, UniProt Q9Y4P1)
T1 sequence (Q9Y4P1 1-393): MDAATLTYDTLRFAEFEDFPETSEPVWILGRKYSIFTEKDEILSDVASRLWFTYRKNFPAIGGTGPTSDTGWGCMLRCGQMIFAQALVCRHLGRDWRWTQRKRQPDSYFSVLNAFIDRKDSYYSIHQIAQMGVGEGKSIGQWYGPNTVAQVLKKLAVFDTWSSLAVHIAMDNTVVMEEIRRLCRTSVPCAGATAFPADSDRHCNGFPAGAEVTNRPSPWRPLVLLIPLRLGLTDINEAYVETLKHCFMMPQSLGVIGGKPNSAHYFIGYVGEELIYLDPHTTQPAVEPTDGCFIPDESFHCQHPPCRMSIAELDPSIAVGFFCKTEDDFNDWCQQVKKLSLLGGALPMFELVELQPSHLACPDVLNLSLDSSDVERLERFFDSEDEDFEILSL
Test: SPR (Biacore 8K, immobilized purified ATG4B); also FRET activity assay and gel-based FRET-GATE16 cleavage assay
Assay type: binding

Kd: 11.8 µM
Structure (SMILES): CN=C(N)NCCC/C=C/CCCC(C)C1OC(=O)/C(C)=C\C=C/C(C)C(O)CC(O)C(C)C(O)CCC(C)C(O)CC2(O)OC(CC(OC(=O)CC(=O)O)CC(O)CC(O)CC(O)/C(C)=C\C=C/C1C)CC(O)C2O (stereo not shown) [Am-F4a, Azalomycin F4a]
